US10294202B2, “Pyrrolidinones as herbicides” (FMC Corporation, priority 2013, dated 2019)

Tests used:
soybean = test: Test C pre-/postemergence herbicide test; format: in vivo, Glycine max
Method in brief: (§1)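 Greenhouse pots; formulation = non-phytotoxic solvent mix + surfactant. PRE onto seeds in loam:sand; POST at 1–4 leaves (2–18 cm) in peat moss/vermiculite medium. Read-out: visual % control vs untreated, day 13–15.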

ducksalad = test: Test B flooded paddy test; format: in vivo, Heteranthera limosa; details: 500 g ai/ha, Flood; scale of 0 to 100 where 0 is no effect and 100 is complete control
Method in brief: (§2)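 Paddy-water application at a 3 cm flood, young plants having two leaves. Water level maintained; greenhouse, 13–15 days; visual 0–100 control rating.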

corn [1] = test: Test C pre-/postemergence herbicide test; format: in vivo, Zea mays
Method in brief: as §1

rice = test: Test B flooded paddy test; format: in vivo, Oryza sativa; details: 500 g ai/ha, Flood; scale of 0 to 100 where 0 is no effect and 100 is complete control
Method in brief: as §2

oilseed rape = test: Test C pre-/postemergence herbicide test; format: in vivo, Brassica napus
Method in brief: as §1

nutsedge, yellow = test: Test C pre-/postemergence herbicide test; format: in vivo, Cyperus esculentus
Method in brief: as §1

barnyardgrass [2] = test: Test C pre-/postemergence herbicide test; format: in vivo, Echinochloa crus-galli
Method in brief: as §1

barnyardgrass [3] = test: Test A pre-/postemergence herbicide test; format: in vivo, Echinochloa crus-galli
Method in brief: (§3)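 Greenhouse pot test with pre- and postemergence application of surfactant-containing solvent formulations. Postemergence plants were 2–10 cm, one- to two-leaf stage. Response scored visually after ~10 days, 0 (no effect) to 100 (complete control).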

pigweed = test: Test A pre-/postemergence herbicide test; format: in vivo, Amaranthus retroflexus
Method in brief: as §3

corn [4] = test: Test A pre-/postemergence herbicide test; format: in vivo, Zea mays; details: Postemergence
Method in brief: as §3

foxtail, giant = test: Test C pre-/postemergence herbicide test; format: in vivo, Setaria faberii
Method in brief: as §1

barnyardgrass [5] = test: Test B flooded paddy test; format: in vivo, Echinochloa crus-galli; details: 500 g ai/ha, Flood; scale of 0 to 100 where 0 is no effect and 100 is complete control
Method in brief: as §2

[6] = Postemergence, 31 g ai/ha, scale 0 to 100 (0 no effect, 100 complete control)
[7] = Postemergence, 62 g ai/ha, scale 0 (no effect) to 100 (complete control)
[8] = Postemergence, 125 g ai/ha, scale 0 to 100 (0 no effect, 100 complete control)
[9] = Postemergence, 250 g ai/ha, scale 0 to 100 (0 no effect, 100 complete control)
[10] = Preemergence, 62 g ai/ha, scale 0 to 100 (0 no effect, 100 complete control)
[11] = Preemergence, 125 g ai/ha, scale 0 to 100
[12] = Preemergence, 31 g ai/ha, scale 0 to 100, 0 is no effect and 100 is complete control
[13] = Preemergence, 125 g ai/ha, scale 0 to 100 (0 no effect, 100 complete control)
[14] = Postemergence, 125 g ai/ha, visual rating on 0 to 100 scale (0 no effect, 100 complete control), approx. 10 days
[15] = Postemergence, 500 g ai/ha, 0 to 100 scale (0 no effect, 100 complete control)
[16] = Preemergence, 125 g ai/ha, 0 to 100 scale where 0 is no effect and 100 is complete control
[17] = Preemergence, 500 g ai/ha, visual rating on 0 to 100 scale (0 no effect, 100 complete control)
[18] = 125 g ai/ha, visual rating on 0 to 100 scale (0 no effect, 100 complete control), approx. 10 days
[19] = 500 g ai/ha, 0 to 100 scale (0 no effect, 100 complete control)

O=C1NCC(c2cccc(OC(F)F)c2)C1C(=O)Nc1cccc(F)c1F (stereo not shown) [Compound 324]
70: Corn plant response rating (corn [1]; [10]) | Oilseed Rape plant response rating (oilseed rape; [10]) | Plant response rating, Pigweed (pigweed; [15])
10: Plant response rating, Foxtail, Giant (foxtail, giant; [7])
65: Plant response rating, Barnyardgrass (barnyardgrass [2]; [9])
100: Plant response rating, Ducksalad (ducksalad)
0: Plant response rating, Soybean (soybean; [6]) | Plant response rating, Soybean (soybean; [8]) | Plant response rating, Soybean (soybean; [9]) | Soybean plant response rating (soybean; [10]) | Plant response rating, Soybean (soybean; [11]) | Plant response rating, Corn (corn [1]; [6]) | Plant response rating, Corn (corn [1]; [7]) | Plant response rating, Corn (corn [1]; [9]) | Plant response rating, Oilseed Rape (oilseed rape; [6]) | Plant response rating, Oilseed Rape (oilseed rape; [7]) | Plant response rating, Oilseed Rape (oilseed rape; [8]) | Plant response rating, Oilseed Rape (oilseed rape; [9]) | Oilseed Rape plant response rating (oilseed rape; [12]) | Plant response rating, Nutsedge, Yellow (nutsedge, yellow; [6]) | Plant response rating, Nutsedge, Yellow (nutsedge, yellow; [7]) | Plant response rating, Nutsedge, Yellow (nutsedge, yellow; [8]) | Plant response rating, Nutsedge, Yellow (nutsedge, yellow; [9]) | Nutsedge, Yellow plant response rating (nutsedge, yellow; [12]) | Nutsedge, Yellow plant response rating (nutsedge, yellow; [10]) | Plant response rating, Nutsedge, Yellow (nutsedge, yellow; [11]) | Plant response rating, Barnyardgrass (barnyardgrass [2]; [6]) | Plant response rating, Foxtail, Giant (foxtail, giant; [6])
90: Plant response rating (scale of 0 to 100), Oilseed Rape (oilseed rape; Preemergence, 250 g ai/ha) | Barnyardgrass plant response rating (barnyardgrass [2]; [12]) | Plant response rating, Barnyardgrass (barnyardgrass [3]; [14]) | Plant response rating, Barnyardgrass (barnyardgrass [3]; [15]) | Plant response rating, Barnyardgrass (barnyardgrass [3]; [16]) | Barnyardgrass plant response rating (barnyardgrass [3]; [17]) | Plant response rating, Corn (corn [4]; [19]) | Foxtail, Giant plant response rating (foxtail, giant; [12]) | Foxtail, Giant plant response rating (foxtail, giant; [10])
60: Pigweed plant response rating (pigweed; [17]) | Plant response rating, Foxtail, Giant (foxtail, giant; [9])
80: Plant response rating, Barnyardgrass (barnyardgrass [5])
85: Plant response rating (scale of 0 to 100), Corn (corn [1]; Preemergence, 250 g ai/ha) | Plant response rating, Oilseed Rape (oilseed rape; [11])
95: Barnyardgrass plant response rating (barnyardgrass [2]; [10]) | Plant response rating, Barnyardgrass (barnyardgrass [2]; [13]) | Plant response rating, Foxtail, Giant (foxtail, giant; [11]) | Plant response rating (scale of 0 to 100), Foxtail, Giant (foxtail, giant; Preemergence, 250 g ai/ha)
25: Corn plant response rating (corn [1]; [12])
40: Plant response rating, Pigweed (pigweed; [14])
30: Plant response rating, Rice (rice) | Plant response rating, Pigweed (pigweed; [16])
5: Plant response rating, Soybean (soybean; [7])
75: Plant response rating, Corn (corn [1]; [11]) | Plant response rating, Foxtail, Giant (foxtail, giant; [8])
35: Plant response rating (scale of 0 to 100), Nutsedge, Yellow (nutsedge, yellow; Preemergence, 250 g ai/ha) | Plant response rating, Barnyardgrass (barnyardgrass [2]; [7])
55: Plant response rating, Corn (corn [1]; [8]) | Plant response rating, Barnyardgrass (barnyardgrass [2]; [8])
50: Plant response rating, Corn (corn [4]; [18])
98: Plant response rating (scale of 0 to 100; 0 is no effect, 100 is complete control), Barnyardgrass (barnyardgrass [2]; Preemergence, 250 g ai/ha)

O=C1NCC(c2cccc(OC(F)F)c2)C1C(=O)Nc1ccc(F)c(F)c1F (stereo not shown) [Compound 325]
65: Oilseed Rape plant response rating (oilseed rape; [10]) | Plant response rating, Foxtail, Giant (foxtail, giant; [8])
85: Plant response rating (scale of 0 to 100), Corn (corn [1]; Preemergence, 250 g ai/ha) | Plant response rating, Oilseed Rape (oilseed rape; [11]) | Barnyardgrass plant response rating (barnyardgrass [2]; [12])
70: Plant response rating, Corn (corn [1]; [11]) | Plant response rating, Barnyardgrass (barnyardgrass [2]; [8]) | Plant response rating, Barnyardgrass (barnyardgrass [5])
98: Plant response rating, Foxtail, Giant (foxtail, giant; [11])
100: Plant response rating, Ducksalad (ducksalad)
40: Plant response rating, Pigweed (pigweed; [14])
10: Plant response rating, Corn (corn [1]; [8]) | Corn plant response rating (corn [1]; [12]) | Plant response rating, Barnyardgrass (barnyardgrass [2]; [6])
20: Plant response rating, Rice (rice)
30: Plant response rating, Pigweed (pigweed; [16])
60: Corn plant response rating (corn [1]; [10]) | Plant response rating, Oilseed Rape (oilseed rape; [9]) | Pigweed plant response rating (pigweed; [17])
50: Plant response rating, Oilseed Rape (oilseed rape; [8]) | Plant response rating, Pigweed (pigweed; [15])
75: Plant response rating, Foxtail, Giant (foxtail, giant; [9])
25: Plant response rating, Barnyardgrass (barnyardgrass [2]; [7])
80: Plant response rating, Barnyardgrass (barnyardgrass [2]; [9]) | Plant response rating, Corn (corn [4]; [18]) | Plant response rating, Corn (corn [4]; [19])
95: Plant response rating, Barnyardgrass (barnyardgrass [2]; [13]) | Plant response rating (scale of 0 to 100; 0 is no effect, 100 is complete control), Barnyardgrass (barnyardgrass [2]; Preemergence, 250 g ai/ha) | Foxtail, Giant plant response rating (foxtail, giant; [10]) | Plant response rating (scale of 0 to 100), Foxtail, Giant (foxtail, giant; Preemergence, 250 g ai/ha)
90: Plant response rating (scale of 0 to 100), Oilseed Rape (oilseed rape; Preemergence, 250 g ai/ha) | Barnyardgrass plant response rating (barnyardgrass [2]; [10]) | Plant response rating, Barnyardgrass (barnyardgrass [3]; [14]) | Plant response rating, Barnyardgrass (barnyardgrass [3]; [15]) | Plant response rating, Barnyardgrass (barnyardgrass [3]; [16]) | Barnyardgrass plant response rating (barnyardgrass [3]; [17]) | Foxtail, Giant plant response rating (foxtail, giant; [12])
35: Plant response rating, Corn (corn [1]; [9]) | Plant response rating, Foxtail, Giant (foxtail, giant; [7])
0: Plant response rating, Soybean (soybean; [6]) | Plant response rating, Soybean (soybean; [7]) | Plant response rating, Soybean (soybean; [8]) | Plant response rating, Soybean (soybean; [9]) | Soybean plant response rating (soybean; [10]) | Plant response rating, Soybean (soybean; [11]) | Plant response rating, Corn (corn [1]; [6]) | Plant response rating, Corn (corn [1]; [7]) | Plant response rating, Oilseed Rape (oilseed rape; [6]) | Plant response rating, Oilseed Rape (oilseed rape; [7]) | Oilseed Rape plant response rating (oilseed rape; [12]) | Plant response rating, Nutsedge, Yellow (nutsedge, yellow; [6]) | Plant response rating, Nutsedge, Yellow (nutsedge, yellow; [7]) | Plant response rating, Nutsedge, Yellow (nutsedge, yellow; [8]) | Plant response rating, Nutsedge, Yellow (nutsedge, yellow; [9]) | Nutsedge, Yellow plant response rating (nutsedge, yellow; [12]) | Nutsedge, Yellow plant response rating (nutsedge, yellow; [10]) | Plant response rating, Nutsedge, Yellow (nutsedge, yellow; [11]) | Plant response rating (scale of 0 to 100), Nutsedge, Yellow (nutsedge, yellow; Preemergence, 250 g ai/ha) | Plant response rating, Foxtail, Giant (foxtail, giant; [6])
